This passage reports MIC results from ChEMBL document CHEMBL1126625, “7-Azetidinylquinolones as antibacterial agents. Synthesis and structure-activity relationships” (J Med Chem, 1993).

≈ marks a conversion by molar mass, not a printed value.

Common to all, as to type: functional
The test system of one assay is Bacillus cereus. The assay is described as follows: Minimum inhibitory concentration (MIC) preventing growth of Bacillus cereus.
The test system of a further assay is Enterococcus faecalis. The assay is described as follows: Minimum inhibitory concentration (MIC) preventing growth of Streptococcus faecalis ATCC 10541.
Another assay concerns Morganella morganii. The assay is described as follows: Minimum inhibitory concentration (MIC) preventing growth of Morganella morganii.
The subject of another assay is Staphylococcus aureus. The assay is described as follows: Minimum inhibitory concentration (MIC) preventing growth of […].
A further assay relates to Proteus vulgaris. Kind of assay: Minimum inhibitory concentration (MIC) preventing growth of Proteus vulgaris.
In another assay the test system is Pseudomonas aeruginosa. The assay is described as follows: Minimum inhibitory concentration (MIC)preventing growth of Pseudomonas aeruginosa.
In a further assay the test system is Escherichia coli. The assay is described as follows: Minimum inhibitory concentration (MIC)preventing growth of Escherichia coli.
The next assay concerns Klebsiella pneumoniae. The assay is described as follows: Minimum inhibitory concentration (MIC)preventing growth of Klebsiella pneumoniae.
The test system of assay [1] is Staphylococcus epidermidis. Kind of assay: Minimum inhibitory concentration (MIC) preventing growth of Staphylococcus epidermidis.
Another assay relates to Enterobacter cloacae. The assay is described as follows: Minimum inhibitory concentration (MIC)preventing growth of Enterobacter cloacae.
The subject of another assay is Bacillus subtilis. Kind of assay: Minimum inhibitory concentration (MIC) preventing growth of Bacillus subtilis.

As a reminder, the MIC is the lowest concentration found to suppress growth. A lower MIC goes with greater potency. `CCn1cc(C(=O)O)c(=O)c2c(N)c(F)c(N3CC(C)(N)C3)c(F)c21`: the MIC in the assay on Bacillus cereus stood at 1 µg/mL (≈ 2.84 µM); in the assay with Enterococcus faecalis it was 1 µg/mL (≈ 2.84 µM); with Morganella morganii, 0.25 µg/mL (≈ 0.71 µM); against Staphylococcus aureus, 0.5 µg/mL (≈ 1.42 µM); with Proteus vulgaris, 0.5 µg/mL (≈ 1.42 µM); against Pseudomonas aeruginosa, 2 µg/mL (≈ 5.68 µM). In addition, the minimal inhibitory concentration (MIC) with Escherichia coli is 0.25 µg/mL (≈ 0.71 µM); with Klebsiella pneumoniae it was 0.25 µg/mL (≈ 0.71 µM); in [1] it was 0.5 µg/mL (≈ 1.42 µM); against Enterobacter cloacae, 0.25 µg/mL (≈ 0.71 µM); in the assay with Bacillus subtilis, 0.12 µg/mL (≈ 0.341 µM).

`CC(=O)CN(C)C1(C)CN(c2cc3c(cc2F)c(=O)c(C(=O)O)cn3C2CC2)C1`: the MIC in the assay with Bacillus cereus was found to be 0.25 µg/mL (≈ 0.623 µM); against Enterococcus faecalis it was 2 µg/mL (≈ 4.98 µM); in the assay with Morganella morganii, 0.5 µg/mL (≈ 1.25 µM); against Staphylococcus aureus, 0.25 µg/mL (≈ 0.623 µM); in the assay with Proteus vulgaris it was 0.5 µg/mL (≈ 1.25 µM); in the assay on Pseudomonas aeruginosa it was 4 µg/mL (≈ 9.96 µM). The MIC with Escherichia coli was 0.25 µg/mL (≈ 0.623 µM); in the assay on Klebsiella pneumoniae, 0.015 µg/mL (≈ 0.0374 µM); in assay [1], 0.25 µg/mL (≈ 0.623 µM); against Enterobacter cloacae it was 0.25 µg/mL (≈ 0.623 µM); in the assay on Bacillus subtilis, 0.06 µg/mL (≈ 0.149 µM).

For the molecule `CC1(N)CN(c2cc3c(cc2F)c(=O)c(C(=O)O)cn3CCF)C1`, the MIC was 1 µg/mL (≈ 2.96 µM) in the assay on Bacillus cereus; 2 µg/mL (≈ 5.93 µM) against Enterococcus faecalis; 0.5 µg/mL (≈ 1.48 µM) against Morganella morganii; 1 µg/mL (≈ 2.96 µM) against Staphylococcus aureus; 1 µg/mL (≈ 2.96 µM) against Proteus vulgaris; 4 µg/mL (≈ 11.9 µM) in the assay with Pseudomonas aeruginosa. In addition, the MIC was 0.5 µg/mL (≈ 1.48 µM) with Escherichia coli; 0.5 µg/mL (≈ 1.48 µM) in the assay with Klebsiella pneumoniae; 1 µg/mL (≈ 2.96 µM) in assay [1]; 1 µg/mL (≈ 2.96 µM) against Enterobacter cloacae; 0.25 µg/mL (≈ 0.741 µM) in the assay with Bacillus subtilis.

As for `Nc1c(F)c(N2CC(N)C2)c(F)c2c1c(=O)c(C(=O)O)cn2-c1ccc(F)cc1F`, the MIC against Bacillus cereus is 0.06 µg/mL (≈ 0.142 µM); with Enterococcus faecalis it was 0.06 µg/mL (≈ 0.142 µM); against Morganella morganii, 0.03 µg/mL (≈ 0.071 µM); in the assay with Staphylococcus aureus, 0.03 µg/mL (≈ 0.071 µM); against Proteus vulgaris it was 0.12 µg/mL (≈ 0.284 µM); in the assay with Pseudomonas aeruginosa it was 0.12 µg/mL (≈ 0.284 µM). Also, the MIC came to 0.015 µg/mL (≈ 0.0355 µM) with Escherichia coli; 0.06 µg/mL (≈ 0.142 µM) in the assay on Klebsiella pneumoniae; 0.06 µg/mL (≈ 0.142 µM) in assay [1]; 0.015 µg/mL (≈ 0.0355 µM) against Enterobacter cloacae; 0.015 µg/mL (≈ 0.0355 µM) in the assay on Bacillus subtilis.

With `CS(=O)(=O)OC1CN(c2c(F)cc3c(=O)c(C(=O)O)cn(C4CC4)c3c2F)C1`, the MIC amounted to 0.12 µg/mL (≈ 0.29 µM) against Bacillus cereus; 0.5 µg/mL (≈ 1.21 µM) against Enterococcus faecalis; 0.5 µg/mL (≈ 1.21 µM) against Morganella morganii; 0.06 µg/mL (≈ 0.145 µM) with Staphylococcus aureus; 0.25 µg/mL (≈ 0.603 µM) in the assay with Proteus vulgaris; 8 µg/mL (≈ 19.3 µM) with Pseudomonas aeruginosa. In addition, the MIC against Escherichia coli amounted to 0.25 µg/mL (≈ 0.603 µM); against Klebsiella pneumoniae, 0.015 µg/mL (≈ 0.0362 µM); in [1] it was 0.06 µg/mL (≈ 0.145 µM); against Enterobacter cloacae it was 0.5 µg/mL (≈ 1.21 µM); with Bacillus subtilis, 0.015 µg/mL (≈ 0.0362 µM).

As to `CC1(N)CN(c2cc3c(cc2F)c(=O)c(C(=O)O)cn3-c2ccc(F)cc2)C1`, the MIC came out at 0.12 µg/mL (≈ 0.311 µM) against Bacillus cereus; 2 µg/mL (≈ 5.19 µM) against Enterococcus faecalis; 0.25 µg/mL (≈ 0.649 µM) in the assay with Morganella morganii; 0.12 µg/mL (≈ 0.311 µM) against Staphylococcus aureus; 0.25 µg/mL (≈ 0.649 µM) in the assay with Proteus vulgaris; 2 µg/mL (≈ 5.19 µM) against Pseudomonas aeruginosa. In addition, the MIC was found to be 0.12 µg/mL (≈ 0.311 µM) in the assay on Escherichia coli; 0.12 µg/mL (≈ 0.311 µM) in the assay with Klebsiella pneumoniae; 0.12 µg/mL (≈ 0.311 µM) in [1]; 0.12 µg/mL (≈ 0.311 µM) against Enterobacter cloacae; 0.06 µg/mL (≈ 0.156 µM) in the assay on Bacillus subtilis.

In the case of `CCn1cc(C(=O)O)c(=O)c2cc(F)c(N3CC(C)(N)C3)cc21`, the MIC against Bacillus cereus is 1 µg/mL (≈ 3.13 µM); in the assay with Enterococcus faecalis it was 0.25 µg/mL (≈ 0.783 µM); in the assay with Morganella morganii, 0.25 µg/mL (≈ 0.783 µM); in the assay with Staphylococcus aureus, 0.5 µg/mL (≈ 1.57 µM); in the assay on Proteus vulgaris, 1 µg/mL (≈ 3.13 µM); with Pseudomonas aeruginosa it was 2 µg/mL (≈ 6.26 µM). Besides, the MIC was determined as 0.5 µg/mL (≈ 1.57 µM) in the assay with Escherichia coli; 0.5 µg/mL (≈ 1.57 µM) against Klebsiella pneumoniae; 0.5 µg/mL (≈ 1.57 µM) in [1]; 0.5 µg/mL (≈ 1.57 µM) in the assay on Enterobacter cloacae; 0.25 µg/mL (≈ 0.783 µM) in the assay with Bacillus subtilis.

`CNC1(C)CN(c2cc3c(cc2F)c(=O)c2c(=O)[nH]sc2n3C2CC2)C1`: the MIC against Bacillus cereus turned out to be 0.06 µg/mL (≈ 0.16 µM); in the assay with Enterococcus faecalis it was 0.06 µg/mL (≈ 0.16 µM); against Morganella morganii, 0.06 µg/mL (≈ 0.16 µM); in the assay with Staphylococcus aureus, 0.06 µg/mL (≈ 0.16 µM); against Proteus vulgaris it was 0.12 µg/mL (≈ 0.32 µM); against Pseudomonas aeruginosa, 0.5 µg/mL (≈ 1.34 µM). In addition, the MIC turned out to be 0.03 µg/mL (≈ 0.0801 µM) in the assay on Escherichia coli; 0.03 µg/mL (≈ 0.0801 µM) against Klebsiella pneumoniae; 0.06 µg/mL (≈ 0.16 µM) in assay [1]; 0.06 µg/mL (≈ 0.16 µM) in the assay on Enterobacter cloacae; 0.03 µg/mL (≈ 0.0801 µM) in the assay on Bacillus subtilis.

For `CCn1cc(C(=O)O)c(=O)c2cc(F)c(N3CC(C)(N)C3)nc21`, the MIC stood at 1 µg/mL (≈ 3.12 µM) with Bacillus cereus; 2 µg/mL (≈ 6.24 µM) in the assay with Enterococcus faecalis; 0.25 µg/mL (≈ 0.78 µM) in the assay on Morganella morganii; 1 µg/mL (≈ 3.12 µM) in the assay with Staphylococcus aureus; 1 µg/mL (≈ 3.12 µM) with Proteus vulgaris; 2 µg/mL (≈ 6.24 µM) in the assay with Pseudomonas aeruginosa. In addition, the MIC is 0.25 µg/mL (≈ 0.78 µM) with Escherichia coli; 0.12 µg/mL (≈ 0.375 µM) with Klebsiella pneumoniae; 1 µg/mL (≈ 3.12 µM) in assay [1]; 0.25 µg/mL (≈ 0.78 µM) with Enterobacter cloacae; 0.25 µg/mL (≈ 0.78 µM) with Bacillus subtilis.

Consider `CC1(N)CN(c2c(F)cc3c(=O)c(C(=O)O)cn(CCF)c3c2F)C1`, for which the MIC with Bacillus cereus was found to be 1 µg/mL (≈ 2.81 µM); against Enterococcus faecalis, 4 µg/mL (≈ 11.3 µM); against Morganella morganii it was 1 µg/mL (≈ 2.81 µM); against Staphylococcus aureus, 1 µg/mL (≈ 2.81 µM); against Proteus vulgaris, 1 µg/mL (≈ 2.81 µM); against Pseudomonas aeruginosa it was 4 µg/mL (≈ 11.3 µM). The MIC in the assay with Escherichia coli was determined as 1 µg/mL (≈ 2.81 µM); against Klebsiella pneumoniae, 1 µg/mL (≈ 2.81 µM); in assay [1] it was 1 µg/mL (≈ 2.81 µM); against Enterobacter cloacae it was 1 µg/mL (≈ 2.81 µM); against Bacillus subtilis, 0.25 µg/mL (≈ 0.704 µM).
